Source: patent publication US20060286608A1, “Method for screening transglutaminase 2 inhibitor or activator” (priority 2005, published 2006)
Where two headings read alike, the source gives them in different places. Residues, ends and D or L forms follow the SMILES beside them. *: point of attachment. Cbz = O=C(OCc1ccccc1)*; OtBu = CC(C)(C)O*

Key:
BV-2 microglia = assay: Nitric oxide measurement (Griess reaction) in LPS-activated BV-2 microglia; format: cell-based, murine; details: BV-2 cells treated with LPS and NMMA (0, 50, 100 μM), 24 hours
Description: (§1) The BV-2 cells were grown and maintained in DMEM (Dulvecco's modified Eagle's medium) (Invitrogen) supplemented with 10% FCS (fetal calf serum) and penicillin/streptomycin at 37° C. in a humidified incubator under 5% CO2. To activate BV-2, the cells were treated with LPS (100 μg/ml; Sigma) for 24 hours. After LPS treatment for 24 hours with or without inducible nitric-oxide synthase(iNOS) inhibitor, 0, 50, and 100 μM N^G-monomethyl-L-arginine(L-NMMA) (Sigma), proteins were extracted with radioimmunoprecipitation assay buffer (1× phosphate-buffered saline (PBS), 1% Nonidet P-40, 0.5% sodium deoxycholate and 0.1% SDS) containing protease inhibitors from BV-2 harvest, followed by analysis for TGase 2 activity.
Accumulated nitric oxide was measured in the cell supernatant after LPS treatment for 24 hours by Griess reaction. A 200 μl aliquot of the cell supernatant in each well of a 96-well microtiter plate was mixed with 100 μl of the Griess reagent [1% sulfanilamide (Fluka), 0.1% naphthylethylenediamine dihydrochloride (Fluka), 2.5% H3PO4], and the absorbance was read at 540 nm using a plate reader.

TGase 2 [1] = assay: TGase activity assay in LPS-activated BV-2 microglia; format: cell-based, murine; details: BV-2 cells treated with LPS and NMMA (0, 50, 100 μM), 24 hours
Description: as §1
Enzymatic activity was determined using a modified TGase assay method for measuring the incorporation of [1,4-^14C] putrescine into succinylated casein.

I-κBα = assay: Proteasome inhibitor treatment of SH-SY5Y/TG cells, Western blotting for I-κBα and ubiquitin; details: SH-SY5Y/TG cells incubated for 6 hours with proteasome inhibitor; for increased ubiquitinated I-κBα: Western blotting; for level of I-κBα: cytosol
Description: The cytosolic fractions were prepared using a nuclear extract kit (Sigma). The samples were separated from 10-20% gradient SDS gels in Tricine buffer (Invitrogen) and then transferred onto a polyvinylidene difluoride membrane (Invitrogen). Western blotting was conducted as established previously. Antibodies to NF-κBp65, I-κBα, phospho-IκB-α (Ser32), I-κB kinaseβ(IKK-β), phospho-IKKα (Ser180)/IKKβ(Ser181), and NF-κB activating kinase were obtained from Cell Signaling Technologies (Beverly, Mass.). Antibodies to NIK, IKKα, and α-topoisomerase I were obtained from Santa Cruz Biotechnology (Santa Cruz, Calif.). […] The blot was then developed by ECL (enhanced chemiluminescence) (Pierce, Milwaukee, Wis.). To determine the purity of extracted cytosolic and nuclear fractions, anti-LDH and anti-α-topoisomerase were used for the cytosolic fraction and the nuclear fraction, respectively.
To examine whether TGase 2 reduces the level of I-κBα via a ubiquitin-proteasome system, SH-SY5Y/TG cells were incubated for 6 hours with proteasome inhibitors, such as MG132, lactacystin, or carbobenzoxy-L-isoleucyl-gamma-t-butyl-L-alanyl-L-leucinal (FIG. 3A). The cytosol was extracted from cells and was carried out Western blotting for I-κBα and ubiquitin. […] If NF-κB expression induced by TGase 2 depends on the IKK/ubiquitin/proteasome pathway, the level of both I-κBα and ubiquitinated I-κBα should be increased.

SH-SY5Y/TG cells [2] = system: SH-SY5Y/TG cells
TGase 2 [3] = molecular target: T1, TGase 2 (Homo sapiens, UniProt P21980); assay: Effect of TGase inhibitors on reduced I-κBα in SH-SY5Y/TG cells; format: cell-based; details: SH-SY5Y/TG cells incubated for 30 min with TGase inhibitor, Western blotting
T1 construct: carry a pcDNA5/FRT vector containing a full-length human TGase 2 gene; expressed in transfected cells; host or cells: human neuroblastoma SH-SY5Y, Flp-In system, pcDNA5/FRT vector
T1 sequence (P21980 1-687): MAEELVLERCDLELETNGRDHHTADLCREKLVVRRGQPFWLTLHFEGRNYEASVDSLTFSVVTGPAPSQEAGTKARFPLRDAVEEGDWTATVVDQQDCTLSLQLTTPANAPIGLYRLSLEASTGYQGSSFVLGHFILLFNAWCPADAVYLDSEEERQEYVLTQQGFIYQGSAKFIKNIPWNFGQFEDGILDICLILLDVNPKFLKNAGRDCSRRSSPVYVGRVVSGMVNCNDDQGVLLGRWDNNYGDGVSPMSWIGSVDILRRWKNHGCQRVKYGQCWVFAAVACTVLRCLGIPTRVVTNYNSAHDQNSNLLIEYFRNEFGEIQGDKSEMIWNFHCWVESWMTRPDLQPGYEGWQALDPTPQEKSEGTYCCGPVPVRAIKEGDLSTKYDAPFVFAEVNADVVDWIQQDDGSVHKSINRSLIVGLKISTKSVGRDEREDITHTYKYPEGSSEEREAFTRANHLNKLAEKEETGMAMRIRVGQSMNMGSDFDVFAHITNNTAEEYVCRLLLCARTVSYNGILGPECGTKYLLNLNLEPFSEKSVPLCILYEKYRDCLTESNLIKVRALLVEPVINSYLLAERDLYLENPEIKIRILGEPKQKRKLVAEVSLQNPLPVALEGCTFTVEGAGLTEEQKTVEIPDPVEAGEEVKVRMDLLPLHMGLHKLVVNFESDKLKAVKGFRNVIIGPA
Source text: Cystamine is known to inhibit TGase activity by blocking the access of a glutamine residue in substrate proteins to the TGase active site. Iodoacetamide (Sigma) is also known to inhibit TGase activity as a strong competitive irreversible inhibitor. […] E2 (DPVKG: SEQ. ID. NO. 6) and R2 (KVLDGQDP: SEQ. ID. NO. 7) were designed to contain a pro-elafin sequence and a pro-elafin/antiflamnin sequence, respectively, therein. […] In order to examine the effect of TGase inhibitors on the decrease in I-κBα level, the SH-SY5Y/TG culture was treated with different inhibitors for 30 min, followed by the separation of the cytosolic fraction using a nuclear extract kit (Sigma).
The effect of TGase 2 expression on the level of I-κBα was examined in EcR 293 and SH-SY5Y cells. To control TGase 2 expression, a tetracycline-induced expression system was applied to EcR 293 cell line (FIG. 6A). In FIG. 6A, EcR 293 cells were collected before incubation (left), after incubation in a medium containing 1 μg/ml of tetracycline for 24 hours (center), and after incubation in a medium containing 1 μg/ml of tetracycline for 24 hours and then in a fresh medium containing no tetracycline for an additional 24 hours (right). […] To examine whether TGase 2 inhibitors can result in the same effect, SH-SY5Y/TG cells were incubated for 30 min with a TGase inhibitor, such as cystamine, idoacetamide, E2 peptide, or R2 peptide.

SH-SY5Y/TG cells [4] = assay: LDH activity in medium and caspase-9 expression in proteasome inhibitor-treated SH-SY5Y/TG cells; details: SH-SY5Y/TG cells incubated for 6 hours with proteasome inhibitor
[5] = molecular target: full-length human NF-κB (p65) (human) (UniProt Q04206); assay: densitometry of co-immunoprecipitation / Western blot
Chain of full-length human NF-κB (p65) (human) (Q04206 whole entry): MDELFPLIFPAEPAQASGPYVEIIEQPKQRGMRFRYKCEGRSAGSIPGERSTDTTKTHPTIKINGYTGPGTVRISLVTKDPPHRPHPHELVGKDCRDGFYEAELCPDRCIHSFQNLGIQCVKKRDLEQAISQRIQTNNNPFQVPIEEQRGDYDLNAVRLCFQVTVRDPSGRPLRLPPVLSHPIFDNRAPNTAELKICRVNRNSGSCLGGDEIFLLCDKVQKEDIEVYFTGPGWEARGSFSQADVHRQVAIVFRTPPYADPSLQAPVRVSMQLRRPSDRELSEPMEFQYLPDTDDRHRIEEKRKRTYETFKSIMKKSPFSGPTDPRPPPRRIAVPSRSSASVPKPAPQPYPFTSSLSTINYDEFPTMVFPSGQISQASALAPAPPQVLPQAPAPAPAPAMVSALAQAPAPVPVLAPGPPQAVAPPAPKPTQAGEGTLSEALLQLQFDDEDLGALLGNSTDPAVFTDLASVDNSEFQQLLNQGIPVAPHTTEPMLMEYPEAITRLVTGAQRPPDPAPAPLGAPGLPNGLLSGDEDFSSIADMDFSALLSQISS

[6] = molecular target: T2, full-length human I-κBα (free form), P25963
T2 chain: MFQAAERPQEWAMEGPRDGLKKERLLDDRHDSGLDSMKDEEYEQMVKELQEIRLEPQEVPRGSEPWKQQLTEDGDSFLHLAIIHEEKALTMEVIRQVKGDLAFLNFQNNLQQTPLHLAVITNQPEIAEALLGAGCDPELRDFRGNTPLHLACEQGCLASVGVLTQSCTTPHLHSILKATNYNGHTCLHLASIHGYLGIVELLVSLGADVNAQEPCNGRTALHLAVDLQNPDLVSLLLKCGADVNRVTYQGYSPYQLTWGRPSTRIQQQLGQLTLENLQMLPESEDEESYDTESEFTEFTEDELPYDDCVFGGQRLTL

[7] = molecular target: T3, human recombinant NF-κB(p52) protein, Q00653
T3 chain: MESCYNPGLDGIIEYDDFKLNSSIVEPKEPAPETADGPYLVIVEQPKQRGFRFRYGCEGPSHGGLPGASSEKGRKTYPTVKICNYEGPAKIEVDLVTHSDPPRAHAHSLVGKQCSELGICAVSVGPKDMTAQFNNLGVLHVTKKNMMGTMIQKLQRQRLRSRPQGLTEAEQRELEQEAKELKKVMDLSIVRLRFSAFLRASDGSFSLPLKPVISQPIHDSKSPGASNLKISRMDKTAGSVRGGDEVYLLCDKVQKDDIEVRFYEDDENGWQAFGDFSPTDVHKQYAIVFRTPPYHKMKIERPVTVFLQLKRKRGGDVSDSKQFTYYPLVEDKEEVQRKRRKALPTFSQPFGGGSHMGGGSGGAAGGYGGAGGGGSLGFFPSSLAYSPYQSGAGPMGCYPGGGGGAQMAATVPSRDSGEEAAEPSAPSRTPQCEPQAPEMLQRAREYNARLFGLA

CNC(=N)NCCC[C@H](N)C(=O)O [NMMA, N^G-monomethyl-L-arginine]
NO secretion (BV-2 microglia): reduced NO secretion in a dose-dependent manner | TGase activity (TGase 2 [1]): did not affect

CC[C@H](C)[C@H](NC(=O)OCc1ccccc1)C(=O)N[C@@H](CCC(=O)OC(C)(C)C)C(=O)N[C@@H](C)C(=O)N[C@H](C=O)CC(C)C [carbobenzoxy-L-isoleucyl-gamma-t-butyl-L-alanyl-L-leucinal] (Cbz-IE(OtBu)AL-aldehyde)
increased ubiquitinated I-κBα (I-κBα): not detected | level of I-κBα (I-κBα): increased | LDH activity in the medium (SH-SY5Y/TG cells [2]): not detected | caspase-9 expression by Western blotting (SH-SY5Y/TG cells [2]): not detected

DPVKG (pro-elafin sequence) [E2 peptide]
cytosolic I-κBα level (TGase 2 [3]): reduce the cytosolic I-κBα level almost to the control level

CC(=O)N[C@@H](CSC(=O)[C@]1([C@@H](O)C(C)C)NC(=O)[C@H](C)[C@@H]1O)C(=O)O [lactacystin]
increased ubiquitinated I-κBα (I-κBα): not detected | level of I-κBα (I-κBα): increased | LDH activity in the medium (SH-SY5Y/TG cells [4]): not detected | caspase-9 expression by Western blotting (SH-SY5Y/TG cells [4]): not detected

polymerized I-κBα (full-length human I-κBα cross-linked by TGase 2) (from UniProt P25963 1-317)
loss of binding efficiency relative to free I-κBα [5]: > 90%

NCCSSCCN [cystamine, Cystamine]
cytosolic I-κBα level (TGase 2 [3]): reduce the cytosolic I-κBα level almost to the control level

CC(C)C[C@@H](C=O)NC(=O)[C@H](CC(C)C)NC(=O)[C@H](CC(C)C)NC(=O)OCc1ccccc1 [MG132] (Cbz-Leu-Leu-Leu-aldehyde)
increased ubiquitinated I-κBα (I-κBα): not detected | level of I-κBα (I-κBα): increased | LDH activity in the medium (SH-SY5Y/TG cells [2]): not detected | caspase-9 expression by Western blotting (SH-SY5Y/TG cells [2]): not detected

KVLDGQDP (pro-elafin/antiflammin sequence) [R2 peptide]
cytosolic I-κBα level (TGase 2 [3]): reduce the cytosolic I-κBα level almost to the control level

NC(=O)CI [idoacetamide, Iodoacetamide]
cytosolic I-κBα level (TGase 2 [3]): reduce the cytosolic I-κBα level almost to the control level

B1: guinea pig liver TGase 2 (protein)
chain: AEDLILERCDLQLEVNGRDHRTADLCRERLVLRRGQPFWLTLHFEGRGYEAGVDTLTFNAVTGPDPSEEAGTMARFSLSSAVEGGTWSASAVDQQDSTVSLLLSTPADAPIGLYRLSLEASTGYQGSSFVLGHFILLYNPRCPADAVYMDSDQERQEYVLTQQGFIYQGSAKFINGIPWNFGQFEDGILDICLMLLDTNPKFLKNAGQDCSRRSRPVYVGRVVSAMVNCNDDQGVLQGRWDNNYSDGVSPMSWIGSVDILRRWKDYGCQRVKYGQCWVFAAVACTVLRCLGIPTRVVTNFNSAHDQNSNLLIEYFRNESGEIEGNKSEMIWNFHCWVESWMTRPDLEPGYEGWQALDPTPQEKSEGTYCCGPVPVRAIKEGHLNVKYDAPFVFAEVNADVVNWIRQKDGSLRKSINHLVVGLKISTKSVGRDEREDITHTYKYPEGSEEEREAFVRANHLNKLATKEEAQEETGVAMRIRVGQNMTMGSDFDIFAYITNGTAESHECQLLLCARIVSYNGVLGPVCSTNDLLNLTLDPFSENSIPLHILYEKYGDYLTESNLIKVRGLLIEPAANSYVLAERDIYLENPEIKIRVLGEPKQNRKLIAEVSLKNPLPVPLLGCIFTVEGAGLTKDQKSVEVPDPVEAGEQAKVRVDLLPTEVGLHKLVVNFECDKLKAVKGYRNVIIGPA
polymerization of I-κBα (in vitro cross-linking, Western blotting) [6]: resulted in completely polymerized I-κBα | polymerization of NF-κB(p52) (in vitro cross-linking, Coomassie staining) [7]: The same polymerization was not observed
